Source: patent publication US20260201062A1, “LIGAND-DRUG CONJUGATE OF EXATECAN ANALOGUE, PREPARATION METHOD THEREFOR AND APPLICATION THEREOF” (JIANGSU HENGRUI MEDICINE CO., LTD., priority 2018, published 2026)
Where two headings read alike, the source gives them in different places.

What was measured:
[1] = tested on: SK-BR-3 tumor cells (human breast cancer cells); assay: In vitro inhibition of compound of formula (D) on tumor cell proliferation (CTG), SK-BR-3; format: cell-based; settings: read-out: IC50 of in vitro inhibition on the proliferation of SK-BR-3 cells
Experimental: (§1) The purpose of this test is to test the in vitro inhibition effect of the drug compound of formula (D) of the present invention on the proliferation of U87MG cells (Chinese Academy of Sciences cell bank, Catalog #TCHu138) and SK-BR-3 tumor cells (human breast cancer cells, ATCC, article number HTB-30). The cells were treated with different concentrations of the compound in vitro. After 6 days of cultivation, the cell proliferation was determined by CTG reagent (CellTiter-Glo® Luminescent Cell Viability Assay, Promega, article number: G7573), and the in vitro activity of the compound was evaluated according to the IC50 value.
The test method for in vitro proliferation inhibition test of the present compounds on tumor cells is described below by taking in vitro proliferation inhibition test method onU87MG cells as an example. This method is also applicable to, but not limited to, the in vitro proliferation inhibition tests on other tumor cells. • 1. Cell cultivation: U87MG cells and SK-BR-3 cells were cultured in EMEM medium containing 10% FBS (GE, article number SH30024.01) and McCoy's 5A medium containing 10% FBS (Gibco, article number 16600-108), respectively. • 2. Cell preparation: U87MG cells and SK-BR-3 cells in logarithmic growth phase were washed with PBS (phosphate buffer, Shanghai Basal Media Technologies Co., Ltd.) once, and then added with 2-3 ml of trypsin (0.25% Trypsin-EDTA (1×), Gibico, Life Technologies) to digest for 2-3 min. 10-15 ml of cell culture medium was added after the cells were completely digested. The digested cells were eluted, and centrifuged at 1000 rpm for 5 min. The supernatant was discarded, and 10-20 ml of cell culture medium was added to resuspend the cells to obtain a single-cell suspension. • 3. Cell plating: the U87MG and SK-BR-3 single-cell suspensions were mixed well, and the cell densities were adjusted to 2.75×10^3 cells/ml and 8.25×10^3 cells/ml with the cell culture medium respectively. The density-adjusted cell suspension was mixed well, and added to a 96-well cell culture plate at 180 μl/well. 200 μl of culture medium was added to the peripheral wells of the 96-well plate. The plate was incubated in an incubator for 24 hours (37° C., 5% CO2). • 4. Compound formulation: the compound was dissolved with DMSO (dimethylsulfoxide, Shanghai Titan Technology Co., Ltd.) to obtain a stock solution with an initial concentration of 10 mM.
The initial concentration of the small molecule compound was 500 nM, and the formulating method is as follows.
30 μl of different test samples were respectively added into the first column of the 96-well U-shaped bottom formulating plate with a sample concentration of 100 µM. 20 µl of DMSO was added to each well from the second column to the 11th column. […]

U87MG cells = assay: In vitro inhibition of compound of formula (D) on tumor cell proliferation (CTG), U87MG; format: cell-based; settings: Homo sapiens, U-87 MG, 144 h, read-out: IC50 of in vitro inhibition on the proliferation of U87 cells
Experimental: as §1
The test method for in vitro proliferation inhibition test of the present compounds on tumor cells is described below by taking in vitro proliferation inhibition test method onU87MG cells as an example. This method is also applicable to, but not limited to, the in vitro proliferation inhibition tests on other tumor cells. • 1. Cell cultivation: U87MG cells and SK-BR-3 cells were cultured in EMEM medium containing 10% FBS (GE, article number SH30024.01) and McCoy's 5A medium containing 10% FBS (Gibco, article number 16600-108), respectively. • 2. […]

[2] = tested on: trastuzumab (Herceptin) resistant human breast cancer cell strain JIMT-1 transplanted tumor; assay: Efficacy evaluation in JIMT-1 tumor-bearing mice; format: in vivo, Nunu nude mice; settings: 10 mg/kg, intraperitoneal injection 2 times, Day 34
Source text: Formulation method: the drugs were all diluted and formulated with PBS. • 3. Test animals • Nunu nude mice, purchased from Beijing Vital River Laboratory Animal Technology Co., Ltd.
JIMT-1 cells (Nanjing Cobioer Biosciences Co., Ltd.) (5×10^6 cells/mouse, having 50% matrigel) were inoculated subcutaneously in the right rib of mouse. After the tumor grew for 8 days and reached 203.09±11.94 mm^3, the animals were randomly grouped into 6 groups with 8 animals per group (d1).
The drugs were administered by intraperitoneal injection for a total of 2 times. The tumor volume and body weight were measured twice a week, and the data were recorded.
Excel 2003 statistical software was used for data statistics: mean value was calculated as avg; SD value was calculated as STDEV; SEM value was calculated as STDEV/SQRT; P value between different groups was calculated as TTEST.
[formula] [formula] [formula] • wherein V0 and VT represent the tumor volume at the beginning of the test and at the end of the test, respectively. CRTV and TRTV represent the relative tumor volume of the blank control group (Vehicle, PBS) and the test group at the end of the test, respectively.

[3] = 144 h, SK-BR-3, 6 days of cultivation, CTG reagent

Molecule	IC50 ([1]; SK-BR-3, 144 h) [nM]	IC50 (U87MG cells) [nM]	IC50 [1, 3] [nM]	further results
CC[C@@]1(O)C(=O)OCc2c1cc1n(c2=O)Cc2c-1nc1cc(F)c(C)c3c1c2[C@@H](NC(=O)C1(O)CC1)CC3 [Compound 1, N-((1S,9S)-9-Ethyl-5-fluoro-9-hydroxy-4-methyl-10,13-dioxo-2,3,9,10,13,15-hexahydro-1H,12H-benzo[de]pyrano[3′,4′:6,7]indolizino[1,2-b]quinolin-1-yl)-1-hydroxycyclopropane-1-carboxamide]	0.12	0.23	–	–
CC[C@@]1(O)C(=O)OCc2c1cc1n(c2=O)Cc2c-1nc1cc(F)c(C)c3c1c2[C@@H](NC(=O)C1(O)CCCC1)CC3 [Compound 4, N-((1S,9S)-9-Ethyl-5-fluoro-9-hydroxy-4-methyl-10,13-dioxo-2,3,9,10,13,15-hexahydro-1H,12H-benzo[de]pyrano[3′,4′:6,7]indolizino[1,2-b]quinolin-1-yl)-1-hydroxycyclopentane-1-carboxamide]	1.9	–	–	–
CC[C@@]1(O)C(=O)OCc2c1cc1n(c2=O)Cc2c-1nc1cc(F)c(C)c3c1c2[C@@H](NC(=O)C1(CO)CC1)CC3 [Compound 5, N-((1S,9S)-9-Ethyl-5-fluoro-9-hydroxy-4-methyl-10,13-dioxo-2,3,9,10,13,15-hexahydro-1H,12H-benzo[de]pyrano[3′,4′:6,7]indolizino[1,2-b]quinolin-1-yl)-1-(hydroxymethyl) cyclopropane-1-carboxamide]	–	4.81	–	–
CC[C@@]1(O)C(=O)OCc2c1cc1n(c2=O)Cc2c-1nc1cc(F)c(C)c3c1c2[C@@H](NC(=O)C1(CO)CCC1)CC3 [Compound 6, N-((1S,9S)-9-Ethyl-5-fluoro-9-hydroxy-4-methyl-10,13-dioxo-2,3,9,10,13,15-hexahydro-1H,12H-benzo[de]pyrano[3′,4′:6,7]indolizino[1,2-b]quinolin-1-yl)-1-(hydroxymethyl) cyclobutane-1-carboxamide]	–	–	1	–
CC[C@@]1(O)C(=O)OCc2c1cc1n(c2=O)Cc2c-1nc1cc(F)c(C)c3c1c2[C@@H](NC(=O)C1(O)CCC1)CC3 [Compound 7, N-((1S,9S)-9-Ethyl-5-fluoro-9-hydroxy-4-methyl-10,13-dioxo-2,3,9,10,13,15-hexahydro-1H,12H-benzo[de]pyrano[3′,4′:6,7]indolizino[1,2-b]quinolin-1-yl)-1-hydroxycyclobutane-1-carboxamide]	–	–	1	–
T-DM1	–	–	–	tumor inhibition rate [2]: no inhibition effect on tumor
